Test results: ChEMBL document CHEMBL3763135, “Synthesis and evaluation of thiophene-based guanylhydrazones (iminoguanidines) efficient against panel of voriconazole-resistant fungal isolates” (Bioorg Med Chem, 2016)
Converted amounts (≈) assume the structure as drawn. The source made the active and inactive calls. The rule behind the calls is not given here.

Tests used:
Candida albicans [1] = test: Induction of DNA intercalation with Candida albicans genomic DNA at 25 ug/ml after 12 hrs by ethidium bromide staining based gel electrophoresis method
Aspergillus fumigatus = test: Antifungal activity against Aspergillus fumigatus ATCC 13073 by broth dilution method; type: functional
Candida parapsilosis [2] = test: Antibiofilm activity against Candida parapsilosis C27 assessed as disruption of preformed biofilm after 24 hrs by concanavalin A-FITC-staining based fluorescence microscopic analysis; type: functional
Candida albicans [3] = test: Antifungal activity against Candida albicans ATCC 10231 by broth dilution method; type: functional
Pichia kudriavzevii [4] = test: Antifungal activity against Candida krusei ATCC 34135 by broth dilution method; type: functional
Candida albicans [5] = test: Antifungal activity against Candida albicans CA5 by broth dilution method; type: functional
Pichia kudriavzevii [6] = test: Antibiofilm activity against Pichia kudriavzevii ATCC 34135 assessed as disruption of preformed biofilm after 24 hrs by concanavalin A-FITC-staining based fluorescence microscopic analysis; type: functional
Candida albicans [7] = test: Antibiofilm activity against Candida albicans assessed as inhibition of Spider medium-induced hyphae formation at sub-MIC after 24 hrs by propidium iodide and FITC-conjugated concanavaline A staining based fluorescence microscopy; type: functional, organism-based
[8] = Hemolytic effect in sheep RBC assessed as release of hemoglobin at MIC after 1 hr; type: ADME, cell-based, Ovis aries, Erythrocyte; conditions: sheep red blood cells, read-out: Activity
Candida albicans [9] = test: Antibiofilm activity against Candida albicans ATCC 10231 assessed as disruption of preformed biofilm after 24 hrs by concanavalin A-FITC-staining based fluorescence microscopic analysis; type: functional
MRC5 = test: Cytotoxicity against human MRC5 cells after 48 hrs by MTT assay; type: cell-based; conditions: MRC5, 48 h
[10] = test system: Trichophyton mentagrophytes; test: Antifungal activity against Trichophyton mentagrophytes DMT4 by broth dilution method; type: functional
Candida parapsilosis [11] = test: Antifungal activity against Candida parapsilosis C27 by broth dilution method; type: functional; conditions: Lodderomyces parapsilosis
[12] = Hemolytic effect in sheep RBC assessed as release of hemoglobin at cytotoxic IC50 after 1 hr; type: cell-based, Ovis aries, Erythrocyte; conditions: sheep red blood cells, read-out: Activity
Microsporum canis = test: Antifungal activity against Microsporum canis DMT2 by broth dilution method; type: functional
Fusarium oxysporum = test: Antifungal activity against Fusarium oxysporum AB18 by broth dilution method; type: functional
[13] = Induction of membrane damage in PC/PS liposome assessed as calcein release at MIC after 30 mins by fluorescence-based liposome leakage assay; type: functional

Molecule | Activity (Candida albicans [1]) | MIC (Aspergillus fumigatus) [µg/mL] | MBEC (Candida parapsilosis [2]) [µg/mL] | MIC (Candida albicans [3]) [µg/mL] | MIC (Pichia kudriavzevii [4]) [µg/mL] | MIC (Candida albicans [5]) [µg/mL] | MBEC (Pichia kudriavzevii [6]) [µg/mL] | Activity (Candida albicans [7]) | hemolysis at 1 h [8] [%] | MBEC (Candida albicans [9]) [µg/mL] | IC50 (MRC5) [µg/mL] | MIC [10] [µg/mL] | MIC (Candida parapsilosis [11]) [µg/mL] | hemolysis at 1 h [12] [%] | MIC (Microsporum canis) [µg/mL] | MIC (Fusarium oxysporum) [µg/mL] | Activity [13] [%]
Cl.N=C(N)N/N=C/c1ccc(-c2ccccc2)o1 | Active | 125 | 1000 | 7.8 | 50 | 15.6 | 500 | Active | ≤ 10 | 500 | 20 | 6.25 | 50 | ≤ 10 | 1.56 | 125 | 
Cl.N=C(N)N/N=C/c1ccc(-c2ccccc2)s1 | Active | 25 | >1000 | 1.95 | 6.25 | 1.95 | >1000 | Active | ≤ 10 | 1000 | 5 | 3.12 | 6.25 | ≤ 10 | 1.56 | 62.5 | 
Cl.N#Cc1ccc(-c2ccc(/C=N/NC(=N)N)s2)cc1 | Active | 25 | 1000 | 3.9 | 25 | 7.8 | >1000 | Active | ≤ 10 | 250 | 5 | 6.25 | 12.5 | ≤ 10 | 0.97 | > 250 | 
O=Cc1ccc(-c2ccccc2)s1 | inactive | 125 (≈ 664 µM) | >1000 | 250 (≈ 1330 µM) | > 250 | 250 (≈ 1330 µM) | >1000 | Active | ≤ 10 | >1000 | 50 (≈ 266 µM) | 250 (≈ 1330 µM) | > 250 | ≤ 10 | 250 (≈ 1330 µM) | 250 (≈ 1330 µM) | 
NYSTATIN |  |  |  |  |  |  |  |  |  |  |  |  |  |  |  |  | 21
